Test results: article PMC4710668, “Bioactivation of food genotoxicants 5-hydroxymethylfurfural and furfuryl alcohol by sulfotransferases from human, mouse and rat: a comparative study” (Archives of Toxicology, 2014)

Legend:
Experiment in all cases: FFA sulfoconjugation assay (N6-MF-A formation with adenosine as scavenger)
Assay type in all cases: biochemical
hSULT1A3 = target: T1, hSULT1A3 (Homo sapiens, UniProt P0DMM9)
T1 construct: made in house; host or cells: Salmonella typhimurium TA1538 (cytosolic fraction, not purified)
Method in brief: (§1)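 SULT-containing cytosols from transgenic S. typhimurium TA1538 were incubated with FFA and 10 mM adenosine as nucleophilic scavenger for 20 min at 37 °C. N6-MF-A adducts were quantified by isotope-dilution UPLC-MS/MS ([15N5]N6-MF-A internal standard). Adduct formed in SULT-deficient cytosol controls was subtracted.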

mSult1b1 = target: T2, mSult1b1 (Mus musculus, UniProt Q9QWG7)
T2 construct: made in house; host or cells: Salmonella typhimurium TA1538 (cytosolic fraction, enzyme not purified)
Method in brief: as §1

mSult1e1 = target: T3, mSult1e1 (Mus musculus, UniProt P49891)
T3 construct: made in house; host or cells: Salmonella typhimurium TA1538 (cytosolic fraction, enzyme not purified)
T3 sequence (P49891 1-295): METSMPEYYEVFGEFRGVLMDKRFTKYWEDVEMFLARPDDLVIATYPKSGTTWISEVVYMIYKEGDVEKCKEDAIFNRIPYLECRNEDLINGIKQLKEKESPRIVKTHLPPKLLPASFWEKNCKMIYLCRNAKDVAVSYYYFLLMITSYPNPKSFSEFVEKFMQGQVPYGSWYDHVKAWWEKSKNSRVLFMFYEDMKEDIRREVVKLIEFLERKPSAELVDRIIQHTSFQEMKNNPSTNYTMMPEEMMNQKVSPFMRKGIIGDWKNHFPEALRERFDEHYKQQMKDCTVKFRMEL
Method in brief: as §1

rSult1b1 = target: T4, rSult1b1 (Rattus norvegicus, UniProt P52847)
T4 construct: made in house; host or cells: Salmonella typhimurium TA1538 (cytosolic fraction, enzyme not purified)
Method in brief: as §1

rSult1c1 = target: T5, rSult1c1 (Rattus norvegicus, UniProt P50237)
T5 construct: made in house; host or cells: Salmonella typhimurium TA1538 (cytosolic fraction, enzyme not purified)
Method in brief: as §1

rSult2b1 = target: T6, rSult2b1 (Rattus norvegicus, UniProt Q29YR5)
T6 construct: made in house; host or cells: Salmonella typhimurium TA1538 (cytosolic fraction, enzyme not purified)
T6 sequence (Q29YR5 1-340): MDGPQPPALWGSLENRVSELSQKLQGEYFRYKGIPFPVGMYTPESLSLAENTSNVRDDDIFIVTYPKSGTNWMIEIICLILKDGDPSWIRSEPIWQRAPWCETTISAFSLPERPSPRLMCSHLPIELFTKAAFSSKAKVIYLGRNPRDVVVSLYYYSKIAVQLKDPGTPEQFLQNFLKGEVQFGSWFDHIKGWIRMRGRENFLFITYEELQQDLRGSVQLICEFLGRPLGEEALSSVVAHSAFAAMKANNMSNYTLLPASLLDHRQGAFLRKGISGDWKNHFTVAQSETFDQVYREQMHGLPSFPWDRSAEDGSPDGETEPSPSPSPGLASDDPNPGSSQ
Method in brief: as §1

T5 sequence (P50237 whole entry): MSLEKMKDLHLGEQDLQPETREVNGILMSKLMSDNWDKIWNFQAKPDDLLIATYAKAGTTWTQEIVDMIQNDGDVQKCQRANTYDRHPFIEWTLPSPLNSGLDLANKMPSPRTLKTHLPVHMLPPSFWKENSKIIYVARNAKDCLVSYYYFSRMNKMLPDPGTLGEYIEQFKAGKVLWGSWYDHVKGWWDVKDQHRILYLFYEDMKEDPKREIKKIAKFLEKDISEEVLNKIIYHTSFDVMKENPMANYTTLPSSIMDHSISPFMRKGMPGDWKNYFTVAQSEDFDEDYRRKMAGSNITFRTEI
T4 sequence (P52847 whole entry): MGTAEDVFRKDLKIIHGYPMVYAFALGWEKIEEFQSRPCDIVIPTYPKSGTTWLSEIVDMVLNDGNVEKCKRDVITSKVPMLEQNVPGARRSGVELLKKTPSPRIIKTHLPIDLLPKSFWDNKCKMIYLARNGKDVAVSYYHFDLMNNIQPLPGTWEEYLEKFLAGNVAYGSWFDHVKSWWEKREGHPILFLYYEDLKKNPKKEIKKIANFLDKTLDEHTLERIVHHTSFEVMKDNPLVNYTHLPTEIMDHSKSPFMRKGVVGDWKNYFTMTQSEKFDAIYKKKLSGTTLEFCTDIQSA
T1 sequence (P0DMM9 whole entry): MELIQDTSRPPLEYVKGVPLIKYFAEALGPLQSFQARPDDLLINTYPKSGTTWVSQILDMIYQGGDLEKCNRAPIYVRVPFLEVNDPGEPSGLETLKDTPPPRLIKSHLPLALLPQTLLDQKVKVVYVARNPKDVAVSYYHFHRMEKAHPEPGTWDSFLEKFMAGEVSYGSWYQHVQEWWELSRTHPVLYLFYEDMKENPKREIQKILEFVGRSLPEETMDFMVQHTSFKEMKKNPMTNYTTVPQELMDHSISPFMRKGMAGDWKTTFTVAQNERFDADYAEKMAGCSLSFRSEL
T2 sequence (Q9QWG7 whole entry): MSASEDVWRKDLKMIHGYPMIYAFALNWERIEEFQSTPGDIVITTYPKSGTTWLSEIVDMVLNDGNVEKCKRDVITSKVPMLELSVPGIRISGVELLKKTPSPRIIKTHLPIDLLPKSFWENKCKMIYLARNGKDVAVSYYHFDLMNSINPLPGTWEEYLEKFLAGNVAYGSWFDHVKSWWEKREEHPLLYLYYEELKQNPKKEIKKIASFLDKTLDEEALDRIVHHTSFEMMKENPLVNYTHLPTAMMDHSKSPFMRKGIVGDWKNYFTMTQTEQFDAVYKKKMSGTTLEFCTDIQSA

OCc1ccco1 [FFA, furfuryl alcohol]
Rate of N6-MF-A formation (hSULT1A3; 1 mM FFA): 27.3 ± 0.5 fmol N ^6-MF-A/mg/min | Rate of N6-MF-A formation (corr.) (hSULT1A3; 1 mM FFA, corrected by actual SULT concentration in the cytosolic preparation): 1,950 ± 30 fmol N ^6-MF-A/mg/min | Rate of N6-MF-A formation (hSULT1A3; 10 mM FFA): 226 ± 3 fmol N ^6-MF-A/mg/min | Rate of N6-MF-A formation (mSult1b1; 0.1 mM FFA): <18 fmol N ^6-MF-A/mg/min | Rate of N6-MF-A formation (mSult1b1; 10 mM FFA): 74.3 ± 1.6 fmol N ^6-MF-A/mg/min | Rate of N6-MF-A formation (mSult1e1; 0.1 mM FFA): <18 fmol N ^6-MF-A/mg/min | Rate of N6-MF-A formation (mSult1e1; 1 mM FFA): 49.3 ± 1.2 fmol N ^6-MF-A/mg/min | Rate of N6-MF-A formation (mSult1e1; 10 mM FFA): 425 ± 3 fmol N ^6-MF-A/mg/min | Rate of N6-MF-A formation (rSult1b1; 0.1 mM FFA): <18 fmol N ^6-MF-A/mg/min | Rate of N6-MF-A formation (rSult1b1; 1 mM FFA): 34.3 ± 1.0 fmol N ^6-MF-A/mg/min | Rate of N6-MF-A formation (rSult1b1; 10 mM FFA): 314 ± 4 fmol N ^6-MF-A/mg/min | Rate of N6-MF-A formation (rSult1c1; 0.1 mM FFA): <18 fmol N ^6-MF-A/mg/min | Rate of N6-MF-A formation (rSult1c1; 1 mM FFA): 97.8 ± 2.3 fmol N ^6-MF-A/mg/min | Rate of N6-MF-A formation (rSult1c1; 10 mM FFA): 492 ± 13 fmol N ^6-MF-A/mg/min | Rate of N6-MF-A formation (rSult2b1; 0.1 mM FFA): <18 fmol N ^6-MF-A/mg/min | Rate of N6-MF-A formation (rSult2b1; 1 mM FFA): <20 fmol N ^6-MF-A/mg/min | Rate of N6-MF-A formation (rSult2b1; 10 mM FFA): <44 fmol N ^6-MF-A/mg/min
